The test system of this assay is CEM cells HIV-1 protection, formazan growth assay. Briefly: NCI AIDS Antiviral Assay. The conditions noted are these: for IC50: measured here: growth of uninfected CEM cells. In outline:
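Human CEM cells, uninfected and HIV-1-infected, received five drug concentrations, and growth was read by soluble formazan assay. Compounds giving at least 50% protection were retested; reproducible 100% protection defined confirmed active.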

Values joined by “and” are separate entries in the source; they are usually repeats but may differ in a detail not shown here. Equal entries are not always repeated. Active and inactive are the calls of the source.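 Rule for the calls: active = compounds giving half or more protection of infected cells from virus-caused growth loss, again on retest; inactive = the rest.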

In general, EC50 refers to the concentration giving half of the maximal effect. One may read the IC50 as the concentration at which inhibition is half-maximal. A high value points to a need for much substance. With `CC(C)N=C(NC#N)NS(=O)(=O)c1cnccc1Nc1ccc(Cl)cc1`, the EC50 is more than 200 µM and the IC50 is more than 200 µM.
In the case of `CCOc1ccc(N2C(=O)/C(=C/c3ccc(N(CCC#N)CCC#N)cc3)N=C2c2cc([N+](=O)[O-])ccc2Cl)cc1`, the EC50 was more than 33.1 µM and the IC50 is 21.4 µM.
For `COCC(/C=N/N=C(N)N)=N\N=C(N)N`, the EC50 is more than 32.4 µM and the IC50 is more than 32.4 µM.
For `CN(C)c1ccc(/C=C/c2ccnc3c2ccc2ccccc23)cc1`, the EC50 was more than 22.4 µM and the IC50 amounted to 13.5 µM.
The matching figures for `COC(=O)c1cc(=O)nc2n1C1OC(CO)C(O)C1O2` (stereo unspecified): more than 200 µM and more than 200 µM.
Take `O=Nc1ccc(C=C2C(=O)C=CC2=O)cc1`: the EC50 was more than 200 µM and the IC50 amounted to 10.2 µM.
On to `CCOC(=O)c1c(-c2ccc(OC)cc2)c(C#N)c(=S)n(C2OC(CO)C(O)C(O)C2O)c1C` (stereo unspecified), for which the EC50 was more than 200 µM and the IC50 was more than 200 µM.
In the case of `C[C@@]1(Cc2ccccc2)C(=O)N2[C@@H](CO)C(c3ccccc3)O[C@]2(C)c2ccccc21` (stereo partly specified), the EC50 was more than 33.1 µM and the IC50 was more than 33.1 µM.
Consider `CN(C)NC1=NS(=O)(=O)c2cc3c(cc2S1)N(N(C)C)C(=O)c1cc2c(cc1N(N(C)C)C3=O)SC(NN(C)C)=NS2(=O)=O`, for which the EC50 is more than 200 µM and the IC50 was 141 µM.
For `COc1ccc(/C=N/n2c(=O)[nH]c3ccccc3c2=O)cc1`, the EC50 was more than 200 µM and the IC50 was more than 200 µM.
In the case of `CCCCCN1CCN(c2ncccn2)CC1`, the EC50 is more than 200 µM and the IC50 was more than 200 µM.
As to `N#CCCN(CCC#N)c1ccc(/C=C(/NC(=O)c2cc([N+](=O)[O-])ccc2Cl)C(=O)N=[N+]=[N-])cc1`, the EC50 was more than 20.4 µM and the IC50 was more than 20.4 µM.
Consider `CC(=O)Oc1c(C)c(-c2ccccc2)c(C)c(-c2ccccc2)c1C(=S)c1ccccc1`, for which the outcome was inactive.
For `COCCN1C2=CCCCC2=Nc2c(N)nc(N)nc21`, the outcome was inactive.
For `CC(=O)c1cccc(NC(=O)C(=O)Nn2c(N)nnc2N)c1`, the EC50 was more than 158 µM and the IC50 is more than 158 µM.
As to `N#C/C(=C/c1ccc[nH]1)P(=O)(O)O`, the EC50 was more than 1260 µM and the IC50 worked out at 724 µM.
Compound `O=C(O)c1ccc(NCc2nc3ccccc3[nH]2)cc1` displayed an EC50 of more than 200 µM and an IC50 of more than 200 µM.
For `O=C1CCC(=O)N1C(c1ccccc1)(c1ccccc1)c1ccccc1`, the EC50 is more than 200 µM and the IC50 is more than 200 µM.
On to `Cc1nn(C(=O)c2ccccc2O)c2c1C(c1ccc(O)cc1)SC(N)=N2` (stereo unspecified), for which the EC50 is more than 2 µM and the IC50 was found to be 0.129 µM.
For `CC(=O)CC(C)=O.CC(=O)CC(C)=O.CC(=O)CC(C)=O.CC(=O)CC(C)=O.[Zr]`, the result was inactive.
With `CN(C)c1ccc(C(=CC=C2C(=O)c3ccccc3C2=O)c2ccc(N(C)C)cc2)cc1`, the EC50 is more than 11.2 µM and the IC50 is more than 11.2 µM.
On to `CC(=O)/C(=C/N1CCNC1=S)C(=O)Nc1ccc([N+](=O)[O-])cc1`, for which the EC50 is more than 200 µM and the IC50 is 43.7 µM.
Regarding `O=C(OCCNC(=O)N1CC1)OCCNC(=O)N1CC1`, the EC50 is more than 200 µM and the IC50 is more than 200 µM.
Take `O=C(NCCCCCCCCCCCCNC(=O)c1cnc2ccccc2n1)c1cnc2ccccc2n1`: the EC50 was more than 4.9 µM and the IC50 is more than 4.9 µM.
As to `O=C1C2CCC(C2)C12CC1(c3ccccc3)C(=O)c3ccccc3N1O2` (stereo unspecified), the EC50 is more than 28.8 µM and the IC50 came to 27.5 µM.
With `CCCCCC(C)SC1(C(=O)OC)CC(OC(C)=O)C(NC(C)=O)C([C@H](OC(C)=O)[C@@H](COC(C)=O)OC(C)=O)O1` (stereo partly specified), the EC50 is more than 200 µM and the IC50 is 63.1 µM.
The matching figures for `CN1CCC2(CC1)C(=NC1CCCCC1)NC(=O)N2c1ccccc1`: more than 200 µM and more than 200 µM.
Consider `O=C(CCn1[nH]c(=O)c(Cl)c(Cl)c1=O)NNC(=O)C[n+]1ccccc1`, for which the EC50 was more than 589 µM and the IC50 is more than 589 µM.
Regarding `COc1ccc(C2C(C#N)=C(S)N(C3OC(COC(C)=O)C(OC(C)=O)C(OC(C)=O)C3OC(C)=O)C(c3ccccc3)=C2C(C)=O)cc1` (stereo unspecified), the EC50 is more than 200 µM and the IC50 is 25.1 µM.
For the compound `Nc1n[nH]c(N)n1`, the EC50 is more than 2510 µM; the IC50 is > 200 µM and 282 µM.
Turning to `Clc1c(C(Cl)(Cl)Cl)nsc1N1CCCCC1`, the EC50 was more than 200 µM and the IC50 was determined as 72.4 µM.
As for `COC(=O)C1(C(=O)OC)CC2c3c(c4ccccc4n3C)CC(C1=O)N2Cc1ccccc1` (stereo unspecified), the outcome was inactive.
As for `CCCCCCCCCCCCCCCC1=NCCN1C`, the EC50 was more than 45.7 µM and the IC50 was determined as 35.5 µM.
As for `COC(=O)CC[C@@H](C)C1CCC2[C@@H]3CC[C@@H]4CC(COS(=O)(=O)c5ccc(C)cc5)CC[C@]4(C)C3CC[C@@]21C` (stereo partly specified), the EC50 was more than 8.32 µM and the IC50 was more than 8.32 µM.
Turning to `C(CCCCc1nnc(N2CCOCC2)o1)CCCc1nnc(N2CCOCC2)o1`, the EC50 is more than 200 µM and the half-maximal inhibitory concentration (IC50) was 107 µM.
For `CC[C@@]1(OC(=O)C(N)CCC(=O)O)C(=O)OCc2c1cc1n(c2=O)Cc2cc3ccccc3nc2-1` (stereo partly specified), the EC50 is more than 10 µM and the IC50 was determined as 0.0145 µM.
In the same order, the values of `COc1ccc2oc(=O)c3c(c2c1C)OC(C)(C)C=C3` are more than 200 µM and more than 100 µM.
`Cc1cc(Cl)ccc1NC(=O)CCCC(=O)C1CCCC1=O` (stereo unspecified): the result was inactive.
As for `COC1=CC2(C=CC1=O)CCC(=O)O2` (stereo unspecified), the 50% effective concentration (EC50) was 10.5 µM and the concentration for half-maximal inhibition (IC50) was found to be 174 µM.
The matching figures for `CN(C)c1ccc(/C=C(\C#N)c2ccccc2Cl)cc1`: more than 15.8 µM and 4.47 µM.
With `Cc1ccc(C2=C(c3ccccc3)C(O)(c3ccccc3)C(c3ccccc3)=C2c2ccc(C)cc2)cc1`, the EC50 was more than 7.76 µM and the IC50 was more than 7.76 µM.
As for `C/C(=N/c1[nH]c(=O)cc2c1C(=O)CC2)N(C)C`, the EC50 was more than 200 µM and the IC50 is more than 200 µM.
`S=c1[nH]c2ccccc2o1`: the EC50 was more than 200 µM and the IC50 was 166 µM.
As to `Cc1c(S(=O)(=O)c2ccccc2)c(N)n(Cc2ccccc2)c1C`, the EC50 was more than 200 µM and the IC50 turned out to be 74.1 µM.
In the case of `Cc1cccc(C)c1C1(Cl)C(=O)c2ccccc2C1=O`, the EC50 is more than 200 µM and the IC50 was 13.5 µM.
For `CC(=O)Nc1ccc(S(=O)(=O)Nc2ccc([N+](=O)[O-])cc2)cc1`, the EC50 is more than 200 µM, the outcome was inactive and the IC50 was more than 200 µM.
Take `COC1/C=C\OC2(C)Oc3c(C)c(O)c4c(O)c(c(/C=N\NC(=O)CC(=O)N/N=C/c5c6c(O)c7c(O)c(C)c8c(c7c5O)C(=O)C(C)(O/C=C/C(OC)C(C)C(OC(C)=O)C(C)C(O)C(C)C(O)C(C)/C=C/C=C(C)C(=O)N6)O8)c(O)c4c3C2=O)NC(=O)/C(C)=C\C=C/C(C)C(O)C(C)C(O)C(C)C(OC(C)=O)C1C` (stereo unspecified): the EC50 was more than 115 µM and the IC50 turned out to be 87.1 µM.
`CC(C)NCC(O)COc1cccc2ccccc12` (stereo unspecified): the EC50 is more than 200 µM and the IC50 was 120 µM.
Take `OC1C2CN3CCN(C2)CC1(c1ccccc1)C3` (stereo unspecified): the EC50 was more than 200 µM and the IC50 was more than 200 µM.
For the compound `CCCCC1=C(C(=O)N2CCOCC2)C2(OCCO2)C1=O`, the EC50 was more than 200 µM and the IC50 is 53.7 µM.

The values above are taken from PubChem BioAssay AID179 (DTP/NCI, 2004).
